The values that follow come from patent US20250122218A1, “MODULATORS OF CYSTIC FIBROSIS TRANSMEMBRANE CONDUCTANCE REGULATOR” (Vertex Pharmaceuticals Incorporated, priority 2022, published 2025).

pEC50: −log10 of the molar value. Where only a bound is given, the exact number is not on record here.

The experiment addresses T1, CFTR in F508del/MF-HBE cells (Homo sapiens, UniProt P13569, DEL508-508).
T1 construct: human bronchial epithelial (HBE) cells derived from CF subjects heterozygous for F508del and a minimal function CFTR mutation; endogenous in cells; host or cells: primary human bronchial epithelial cells from CF subjects (F508del/MF-HBE)
The experiment in a line: Ussing chamber assay of CFTR-mediated short-circuit currents (identification of potentiator compounds). The experiment is classed as cell-based. Particulars: potentiator incubated 18-24 hours at 37° C. in combination with 10 μM corrector, in the presence of 20% human serum, CFTR-mediated ISC. In short, it runs like this: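 F508del/MF-HBE cultures were preincubated 18-24 h at 37° C with potentiator plus 10 μM of a fixed corrector compound in 20% human serum; compounds were kept present during measurement. ISC was recorded under voltage clamp (0 mV, 37° C, amiloride apical) and taken as the 20 μM forskolin peak minus the current after inhibitor cocktail.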

T1 sequence (P13569 with tags, fused parts or gaps DEL508-508): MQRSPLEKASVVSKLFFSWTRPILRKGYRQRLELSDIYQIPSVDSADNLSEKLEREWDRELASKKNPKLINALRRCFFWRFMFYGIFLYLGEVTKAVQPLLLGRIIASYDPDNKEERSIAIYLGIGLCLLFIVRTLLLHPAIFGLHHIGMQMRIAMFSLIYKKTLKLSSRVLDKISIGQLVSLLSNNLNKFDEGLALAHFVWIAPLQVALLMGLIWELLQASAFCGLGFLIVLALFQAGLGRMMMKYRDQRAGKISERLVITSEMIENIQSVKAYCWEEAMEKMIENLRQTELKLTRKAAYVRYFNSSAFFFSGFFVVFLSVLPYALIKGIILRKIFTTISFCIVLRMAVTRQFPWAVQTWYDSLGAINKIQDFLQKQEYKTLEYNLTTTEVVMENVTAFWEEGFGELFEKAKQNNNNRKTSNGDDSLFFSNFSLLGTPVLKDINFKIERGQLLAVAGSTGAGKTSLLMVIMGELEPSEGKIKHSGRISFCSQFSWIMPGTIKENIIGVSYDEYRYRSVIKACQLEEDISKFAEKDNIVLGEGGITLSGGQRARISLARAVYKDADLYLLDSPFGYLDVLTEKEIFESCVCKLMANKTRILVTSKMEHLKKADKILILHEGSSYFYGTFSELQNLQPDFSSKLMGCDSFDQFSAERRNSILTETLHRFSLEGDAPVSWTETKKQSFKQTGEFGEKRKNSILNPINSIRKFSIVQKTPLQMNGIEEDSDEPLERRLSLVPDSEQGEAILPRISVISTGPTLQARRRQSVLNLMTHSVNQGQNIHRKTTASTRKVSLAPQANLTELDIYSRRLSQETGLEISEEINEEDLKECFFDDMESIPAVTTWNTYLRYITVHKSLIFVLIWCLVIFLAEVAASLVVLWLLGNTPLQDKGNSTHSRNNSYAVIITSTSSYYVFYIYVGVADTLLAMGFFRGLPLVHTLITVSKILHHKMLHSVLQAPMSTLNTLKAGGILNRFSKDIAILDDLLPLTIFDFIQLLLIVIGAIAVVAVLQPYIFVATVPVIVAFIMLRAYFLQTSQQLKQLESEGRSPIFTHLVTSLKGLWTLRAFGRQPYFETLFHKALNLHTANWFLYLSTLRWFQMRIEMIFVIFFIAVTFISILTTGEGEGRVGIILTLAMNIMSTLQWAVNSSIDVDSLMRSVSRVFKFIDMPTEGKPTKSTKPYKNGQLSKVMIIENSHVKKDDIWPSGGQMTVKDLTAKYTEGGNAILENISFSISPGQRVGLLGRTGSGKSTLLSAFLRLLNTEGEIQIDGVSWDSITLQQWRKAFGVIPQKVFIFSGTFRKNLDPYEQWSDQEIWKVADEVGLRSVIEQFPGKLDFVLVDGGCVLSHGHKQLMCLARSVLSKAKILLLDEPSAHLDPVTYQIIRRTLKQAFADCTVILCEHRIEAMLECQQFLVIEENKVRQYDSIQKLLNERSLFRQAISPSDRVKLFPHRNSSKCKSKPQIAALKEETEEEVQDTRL

A word on the pEC50: it is −log10 of the EC50, conventionally taken in molar units. Consider `Nc1cc(C(F)(F)F)c2nc1-c1nnc(o1)[C@@](O)(C(F)(F)F)CCCCCN(C1CCCC1)C2=O` [Compound 100, (6R)-17-Amino-12-cyclopentyl-6-hydroxy-6,15-bis (trifluoromethyl)-19-oxa-3,4,12,18-tetrazatricyclo [12.3.1.12,5] nonadeca-1(18),2,4,14,1 6-pentaen-13-one], for which the pEC50 is more than 6.30.

Take `Nc1cc(C(F)(F)F)c2nc1-c1nnc(o1)[C@@](O)(C(F)(F)F)CCCCCN(Cc1ccc3c(c1)OC(F)(F)O3)C2=O` [Compound 101, (6R)-Amino-12-[(2,2-difluoro-1,3-benzodioxol-5-yl)methyl]-6-hydroxy-6,15-bis (trifluoromethyl)-19-oxa-3,4,12,18-tetrazatricyclo [12.3.1.12,5] nonadeca-1(18),2,4,14,1 6-pentaen-13-one]: the pEC50 is more than 6.30.

On to `Nc1cc(C(F)(F)F)c2nc1-c1nnc(o1)[C@@](O)(C(F)(F)F)CCCCCN(C1CCS(=O)(=O)CC1)C2=O` [Compound 102, (6R)-17-Amino-12-(1,1-dioxothian-4-yl)-6-hydroxy-6,15-bis (trifluoromethyl)-19-oxa-3,4,12,18-tetrazatricyclo [12.3.1.12,5] nonadeca-1(18),2,4,14,1 6-pentaen-13-one], for which the pEC50 is less than 6.00.

In the case of `Nc1cc(C(F)(F)F)c2nc1-c1nnc(o1)[C@@](O)(C(F)(F)F)CCCCCN(C1CS(=O)(=O)C1)C2=O` [Compound 103, (6R)-17-Amino-12-(1,1-dioxothietan-3-yl)-6-hydroxy-6,15-bis (trifluoromethyl)-19-oxa-3,4,12,18-tetrazatricyclo [12.3.1.12,5] nonadeca-1(18),2,4,14,1 6-pentaen-13-one], the pEC50 was less than 6.00.

For the compound `C[C@@H](c1ccc(F)cc1)N1CCCCC[C@](O)(C(F)(F)F)C2=NN=C(O2)c2nc(c(C(F)(F)F)cc2N)C1=O` [Compound 104, (6R)-17-Amino-12-[(1S)-1-(4-fluorophenyl)ethyl]-6-hydroxy-6,15-bis (trifluoromethyl)-19-oxa-3,4,12,18-tetrazatricyclo [12.3.1.12,5] nonadeca-1(18),2,4,14,1 6-pentaen-13-one], the negative logarithm of the EC50 (pEC50) is more than 6.30.

Take `C[C@H](c1ccc(F)cc1)N1CCCCC[C@](O)(C(F)(F)F)C2=NN=C(O2)c2nc(c(C(F)(F)F)cc2N)C1=O` [Compound 105, (6R)-17-Amino-12-[(1R)-1-(4-fluorophenyl)ethyl]-6-hydroxy-6,15-bis (trifluoromethyl)-19-oxa-3,4,12,18-tetrazatricyclo [12.3.1.12,5] nonadeca-1(18),2,4,14,1 6-pentaen-13-one]: the pEC50 is more than 6.30.

Turning to `Nc1cc(C(F)(F)F)c2nc1-c1nnc(o1)[C@@](O)(C(F)(F)F)CCCCCN(Cc1ccc(OC(F)(F)F)cc1)C2=O` [Compound 106, (6R)-17-Amino-6-hydroxy-12-[[4-(trifluoromethoxy)phenyl]methyl]-6,15-bis (trifluorom 19-oxa-ethyl)-3,4,12,18-tetrazatricyclo [12.3.1.12,5] nonadeca-1(18),2,4,14,1 6-pentaen-13-one], the pEC50 is more than 6.30.

Regarding `Nc1cc(C(F)(F)F)c2nc1-c1nnc(o1)[C@@](O)(C(F)(F)F)CCCCCN(c1ccccn1)C2=O` [Compound 107, (6R)-17-Amino-6-hydroxy-12-(2-pyridyl)-6,15-bis (trifluoromethyl)-19-oxa-3,4,12,18-tetrazatricyclo [12.3.1.12,5] nonadeca-1(18),2,4,14,1 6-pentaen-13-one], the negative-log EC50 (pEC50) is more than 6.30.

For the compound `Nc1cc(C(F)(F)F)c2nc1-c1nnc(o1)[C@@](O)(C(F)(F)F)CCCCCN(c1ccccc1)C2=O` [Compound 108, (6R)-17-Amino-6-hydroxy-12-phenyl-6,15-bis (trifluorom 19-oxa-ethyl)-3,4,12,18-tetrazatricyclo [12.3.1.12,5] nonadeca-1(18),2,4,14,1 6-pentaen-13-one], the pEC50 is more than 6.30.

For the compound `Cn1cc(N2CCCCC[C@](O)(C(F)(F)F)C3=NN=C(O3)c3nc(c(C(F)(F)F)cc3N)C2=O)cn1` [Compound 109, (6R)-17-Amino-6-hydroxy-12-(1-methylpyrazol-4-yl)-6,15-bis (trifluoromethyl)-19-oxa-3,4,12,18-tetrazatricyclo [12.3.1.12,5] nonadeca-1(18),2,4,14,1 6-pentaen-13-one], the pEC50 was more than 6.30.

For the compound `Nc1cc(C(F)(F)F)c2nc1-c1nnc(o1)[C@@](O)(C(F)(F)F)CCCCCN(Cc1cccc3ccccc13)C2=O` [Compound 110, (6R)-17-Amino-6-hydroxy-12-(1-naphthylmethyl)-6,15-bis (trifluoromethyl)-19-oxa-3,4,12,18-tetrazatricyclo [12.3.1.12,5] nonadeca-1(18),2,4,14,1 6-pentaen-13-one], the pEC50 was more than 6.30.

With `Nc1cc(C(F)(F)F)c2nc1-c1nnc(o1)[C@@](O)(C(F)(F)F)CCCCCN(Cc1ccc3ccccc3c1)C2=O` [Compound 111, (6R)-17-Amino-6-hydroxy-12-(2-naphthylmethyl)-6,15-bis (trifluoromethyl)-19-oxa-3,4,12,18-tetrazatricyclo [12.3.1.12,5] nonadeca-1(18),2,4,14,1 6-pentaen-13-one], the negative-log EC50 (pEC50) is more than 6.30.

On to `Nc1cc(C(F)(F)F)c2nc1-c1nnc(o1)[C@@](O)(C(F)(F)F)CCCCCN(Cc1cc[nH]n1)C2=O` [Compound 112, (6R)-17-Amino-6-hydroxy-12-(1H-pyrazol-3-ylmethyl)-6,15-bis (trifluoromethyl)-19-oxa-3,4,12,18-tetrazatricyclo [12.3.1.12,5] nonadeca-1(18),2,4,14,1 6-pentaen-13-one], for which the pEC50 was less than 6.00.

In the case of `Nc1cc(C(F)(F)F)c2nc1-c1nnc(o1)[C@@](O)(C(F)(F)F)CCCCCN(Cc1cn[nH]c1)C2=O` [Compound 113, (6R)-17-Amino-6-hydroxy-12-(1H-pyrazol-4-ylmethyl)-6,15-bis (trifluoromethyl)-19-oxa-3,4,12,18-tetrazatricyclo [12.3.1.12,5] nonadeca-1(18),2,4,14,1 6-pentaen-13-one], the pEC50 is less than 6.00.

On to `CC(C)(C)c1ccc(CN2CCCCC[C@](O)(C(F)(F)F)C3=NN=C(O3)c3nc(c(C(F)(F)F)cc3N)C2=O)cc1` [Compound 116, (6R)-17-Amino-12-[(4-tert-butylphenyl)methyl]-6-hydroxy-6,15-bis (trifluoromethyl)-19-oxa-3,4,12,18-tetrazatricyclo [12.3.1.12,5] nonadeca-1(18),2,4,14,1 6-pentaen-13-one], for which the pEC50 was more than 6.30.

As for `Cn1ccc(CN2CCCCC[C@](O)(C(F)(F)F)C3=NN=C(O3)c3nc(c(C(F)(F)F)cc3N)C2=O)n1` [Compound 117, (6R)-17-Amino-6-hydroxy-12-[(1-methylpyrazol-3-yl)methyl]-6,15-bis (trifluorom ethyl)-19-oxa-3,4,12,18-tetrazatricyclo [12.3.1.12,5] nonadeca-1(18),2,4,14,1 6-pentaen-13-one], the pEC50 was less than 6.00.

As for `Cn1cc(CN2CCCCC[C@](O)(C(F)(F)F)C3=NN=C(O3)c3nc(c(C(F)(F)F)cc3N)C2=O)cn1` [Compound 118, (6R)-17-Amino-6-hydroxy-12-[(1-methylpyrazol-4-yl)methyl]-6,15-bis (trifluoromethyl)-19-oxa-3,4,12,18-tetrazatricyclo [12.3.1.12,5] nonadeca-1(18),2,4,14,1 6-pentaen-13-one], the negative logarithm of the EC50 (pEC50) was less than 6.00.
